Earlier results as cited in patent US20260240758A1, “INJECTABLE PHENYLEPHRINE COMPOSITIONS” (Hikma Pharmaceuticals USA Inc., priority 2022, published 2026).

Settings: phenylephrine HCl 400 μg/ml and 200 μg/ml, PVC bags, 60 days at room temperature

phenylephrine degraded: 4-5%
Structure (SMILES): CNC[C@H](O)c1cccc(O)c1 [phenylephrine]
